According to patent US11044909B2, “Composition for destruction of microalgae or sphaerocarpus” (CUREARTH, INC., priority 2015, dated 2021):
Where two headings read alike, the source gives them in different places.

What was measured:
[1] = system: Heterocapsa Circularisquama; test: Microalgae-destroying effect by IC50 measurement (cell count); assay type: cell-based; conditions: 24 h, cultured 1 day
Method: (§1) The IC50 value was obtained according to Equation 1: […]
(§2) First, the above-listed microalgae were cultured in a culture flask at a temperature of about 20° C. under light conditions, and a medium used was Guillard's f/2 medium which is commonly used in the art (Guillard R R L and Keller M D. Culturing dinoflagellates. In: Spector (Ed.), Dinoflagellates. New York: Academic Press; 1984, 391442).
(§3) After the cultured microalgae were transferred onto a 24-well plate, Chattonella Marina, Heterosigma circularisquama, Cochlodinium Polykrikoides, and Heterosigma akashiwo, which were in an exponential growth phase, were treated with Compounds 1 to 3, 5 to 10, 12, 13, 17 to 43, and 45 to 47 synthesized in Examples 1 to 3, 5 to 10, 12, 13, 17 to 43, and 45 to 47 at concentrations of 0.1 uM, 0.2 uM, 0.5 uM, 1 uM, 2 uM, and 5 uM, and then cultured for 1 day.
(§4) Control groups were not treated with any of the compounds synthesized in the above-identified examples. After incubation, the number of cells of each alga was counted using a Burker-Tukr hemocytometer, and IC50 values were calculated according to Equation 1 using SigmaPlot Version 11.2 software (Standard curve: the four-parameter logistic curve).

[2] = system: Heterosigma Akashiwo; test: as above; assay type: cell-based; conditions: 24 h, cultured 1 day, read-out: IC50 Heterosigma Akashiwo
Method: as §1, §2, §3, §4

[3] = system: Chattonella Marina; test: as above; assay type: cell-based; conditions: 24 h, cultured 1 day, read-out: IC50 Chattonella Marina
Method: as §1, §2, §3, §4

[4] = system: Cochlodinium Polykrikoides; test: as above; assay type: cell-based; conditions: Margalefidinium polykrikoides, 24 h, 0.1-5 uM, cultured 1 day, read-out: IC50 Cochlodinium Polykrikoides
Method: (§5) The IC50 value was obtained according to Equation 1:
(§6) The algicidal activity of each compound was calculated using Equation 2: Algicidal activity (%)=(1−Tt/Ct)×100 <Equation 2>
(§7) In Equation 2, T (treatment group) and C (control group) represent algae densities in cell counts when each compound was inoculated and was not inoculated, respectively, and t represents the number of days which had passed after the inoculation.
as §2, §3, §4

[5] = system: Daphnia magna; test: Acute toxicity test on Daphnia magna; assay type: in vivo; conditions: 5 μM, 2 days; FIG. 4
Method: An acute toxicity test was performed on Daphnia magna (water flea) using Compounds 33 and 35 synthesized in Examples 33 and 35. In particular, culture solutions of Daphnia magna (200 mL, 30 animals) in DMSO and M4 medium were treated with solutions of Compounds 33 and 35 at 5 μM, 10 μM, and 15 μM for 2 days.

[6] = system: Microcystis aeruginosa; test: Microalgae-destroying effect by IC50 measurement (cell count); assay type: cell-based; conditions: Microcystis aeruginosa, 120 h, read-out: IC50 Microcystis aeruginosa
Method: as §5, §6, §7, §2
Microcystis aeruginosa was treated with Compounds 1 to 3, 5 to 10, 12, 13, 17 to 43, and 45 to 51 synthesized in Examples 1 to 3, 5 to 10, 12, 13, 17 to 43, and 45 to 51 at concentrations of 0.1 uM, 0.2 uM, 0.5 uM, 1 uM, 2 uM, 5 uM, 10 uM, 15 uM, and 20 uM and then cultured for 5 days.
as §4

[7] = system: Danio rerio; test: Acute toxicity test on Danio rerio; assay type: in vivo; conditions: 15 μM, 2 weeks; FIG. 5
Method: An acute toxicity test on Danio rerio (zebrafish) was performed using compounds 33 and 35 synthesized in Examples 33 and 35. In particular, 2-cm-sized Danio rerio, which had been 3 months since hatching, was acclimatized for 14 days before the start of the experiment. The Danio rerio were feed twice a day during the acclimation period. Next, solutions of Compounds 33 and […] were prepared at concentrations of 0, 5, 10, 15, 20, 25, and 30 μM. Culture solutions of the Danio rerio (10 L, initial population number: 10 zebrafish in total (1 zebrafish/L)) were treated for 2 weeks with the solutions of Compounds 33 and 35 at different concentrations to thereby perform the acute toxicity test.

[8] = system: Microcystis aeruginosa; test: Microalgae-destroying effect of Compound 2, viable cell counts; assay type: cell-based; conditions: 0.5 μM, 1 μM, and 2 μM, observed for 2 days; FIG. 3
Method: To investigate a microalgae-destroying effect of Compound 2 synthesized in Example 2, culture solutions of Microcystis aeruginosa (40 mL; initial population number: 100×10^4/mL) in DMSO and BG11 medium were each treated with solutions of Compound 2 at 0.5 μM, 1 μM, and 2 μM and observed for 2 days. A culture solution of the microalgae not treated with a solution of Compound 2 was used as a control group.

[9] = system: Cochlodinium Polykrikoides; test: Microalgae-destroying effect by surviving cells rate measurement; assay type: cell-based; conditions: 1 μM, about 6 hours
Method: (§8) To investigate a microalgae-destroying effect of Compound 35 synthesized in Example 35, culture solutions of Chattonella Marina, Heterosigma Circularisquama, Cochlodinium Polykrikoides, and Heterosigma akashiwo (40 mL, initial population number: about 15×10^4 to 18×10^4/mL) were each treated with a solution of Compound 35 (1 μM in dimethyl sulfoxide (DMSO) and f/2 medium) for about 6 hours. A microalgae culture solution not treated with a solution of Compound 35 was used as a control group. After the treatment, viable cell ratios of the microalgae with respect to time were measured, and it was also observed whether the microalgae were destroyed.

[10] = system: Heterosigma Akashiwo; test: as above; assay type: cell-based; conditions: 1 μM, about 6 hours
Method: as §8

[11] = system: Chattonella Marina; test: as above; assay type: cell-based; conditions: 1 μM, about 6 hours
Method: as §8

[12] = system: Heterosigma Circularisquama; test: as above; assay type: cell-based; conditions: 1 μM, about 6 hours
Method: as §8

[13] = Table 1, 3,4-dichlorobenzylamines, 0.1-5 uM, read-out: IC50 Heterocapsa Circularisquama
[14] = Table 1, 3,4-dichlorobenzylamines, 0.1-5 uM
[15] = Table 1, 3,4-dichlorobenzylamines
[16] = Table 1, 3,4-dichlorobenzylamines, 0.1-20 uM, cultured 5 days
[17] = Table 2, 0.1-5 uM, read-out: IC50 Heterocapsa Circulariaquama

SMILES	IC50 [1, 13] [nM]	IC50 [2, 14] [nM]	IC50 [3, 14] [nM]	IC50 [4, 15] [nM]	IC50 [6, 16] [nM]	other results
Clc1ccc(CNC2CCCC2)cc1Cl [Compound 33, Cyclopentyl-(3,4-dichloro-benzyl)-amine]	1040	243	320	360	19500	survival ratio [5]: about 100%; survival ratio [7]: 100%
CCN(CC)CCCNCc1ccc(Cl)c(Cl)c1 [Compound 2, N′-(3,4-Dichloro-benzyl)-N,N-diethyl-propane-1,3-diamine]	3400	1300	2600	327	570	viable cell counts of Microcystis with respect to time [8]: high algicidal effect
Clc1ccc(CNC2CCCCC2)cc1Cl [Compound 35, Cyclohexyl-(3,4-dichloro-benzyl)-amine]	1140	218	290	150	14600	viable cell ratio with respect to time ([9]; FIG. 1): decreased with time; whether the microalgae were destroyed (microscope images) ([9]; FIG. 2): destroyed; viable cell ratio with respect to time ([10]; FIG. 1): decreased with time; whether the microalgae were destroyed (microscope images) ([10]; FIG. 2): destroyed; viable cell ratio with respect to time ([11]; FIG. 1): decreased with time; whether the microalgae were destroyed (microscope images) ([11]; FIG. 2): destroyed; viable cell ratio with respect to time ([12]; FIG. 1): decreased with time; whether the microalgae were destroyed (microscope images) ([12]; FIG. 2): destroyed; survival ratio [7]: 100%
Fc1ccc(NCc2ccc(Cl)c(Cl)c2)cc1 [Compound 23, (3,4-Dichloro-benzyl)-(4-fluoro-phenyl)-amine]	> 5000	1540	> 5000	> 5000	11100	
Clc1ccc(CNCc2ccccn2)cc1Cl [Compound 26, (3,4-Dichloro-benzyl)-pyridin-2-ylmethyl-amine]	> 5000	720	3400	> 5000	> 20000	
CCCNCc1ccc(Cl)c(Cl)c1 [Compound 18, (3,4-Dichloro-benzyl)-propyl-amine]	> 5000	730	2670	4380	11800	
c1ccc(CNC2CCCCCC2)cc1 [Compound 42, Benzyl-cycloheptyl-amine]						IC50 [1, 17]: > 5000 nM; IC50 ([2]; Table 2, 0.1-5 uM): 150 nM; IC50 ([3]; Table 2, 0.1-5 uM): 520 nM; IC50 ([4]; Table 2): > 5000 nM; IC50 [6]: > 5000 nM
Clc1ccc(NCc2ccc(Cl)c(Cl)c2)cc1 [Compound 21, (4-Chloro-phenyl)-(3,4-dichloro-benzyl)-amine]	3300	1280	> 5000	3600	9660	
CCN(CC)CCNC(=O)c1ccc(Cl)c(Cl)c1 [Compound 9, 3,4-Dichloro-N-(2-diethylamino-ethyl)-benzamide]						IC50 [1, 17]: 1970 nM; IC50 ([2]; Table 2, 0.1-5 uM): 1850 nM; IC50 ([3]; Table 2, 0.1-5 uM): > 5000 nM; IC50 ([4]; Table 2): 4550 nM; IC50 [6]: 970 nM
Clc1ccc(CNC2CCc3ccccc32)cc1Cl (stereo not shown) [Compound 45, (3,4-Dichloro-benzyl)-indan-1-yl-amine]	2000	1140	1440	310	> 20000	
COCCNCc1ccc(Cl)c(Cl)c1 [Compound 5, (3,4-dichloro-benzyl)-(2-methoxy-ethyl)-amine]	> 5000	1300	> 5000	> 5000	14200	
CCN(CC)CCNCc1ccc(Cl)c(Cl)c1 [Compound 1, N′-(3,4-dichloro-benzyl)-N,N-diethyl-ethane-1,2-diamine]	1760	1580	2900	2300	4890	
CN(C)CCNCc1ccc(Cl)c(Cl)c1 [Compound 3, N′-(3,4-Dichloro-benzyl)-N,N-dimethyl-ethane-1,2-diamine]	3100	2250	> 5000	> 5000	8410	
Clc1ccc(CNC2CCC2)cc1Cl [Compound 46, Cyclobutyl-(3,4-dichloro-benzyl)-amine]	3080	482	1130	1670	15800	
